Assay results: ChEMBL document CHEMBL5625167, “In vitro bioevaluation and docking study of dihydrosphingosine and ethambutol analogues against sensitive and multi-drug resistant Mycobacterium tuberculosis” (Eur J Med Chem, 2023)
In brackets after ≈: the same amount, converted by molar mass. Several values for one entry are separate records, joined by “and”; a condition that tells them apart may be missing. Equal values may be shown once.

How the values were obtained:
Klebsiella pneumoniae = experiment: Antibacterial activity against Klebsiella pneumoniae ATCC 13883 incubated for 18 hrs by resazurin dye based broth microdilution method; assay type: functional
[1] = Cytotoxicity against mouse J774.A1 cells assessed as reduction in cell population incubated for 48 hrs by MTT assay; assay type: toxicity, cell-based
[2] = system: Mycolicibacterium smegmatis; experiment: Antimycobacterial activity against Mycobacterium smegmatis ATCC607 incubated for 24 hrs by resazurin dye based broth microdilution method; assay type: functional
[3] = system: Mycobacterium tuberculosis; experiment: Potency index, ratio of ethambutol MIC to test compound MIC for antimycobacterial activity against isoniazid, rifampicin, ethambutol and pyrazinamide sensitive Mycobacterium tuberculosis H37Rv ATCC 25618 assessed as inhibition of bacterial growth incubated for 7 days by resazurin dye based colorimetric method analysis; assay type: functional; settings: time 7 day
[4] = Cytotoxicity against African green monkey Vero cells assessed as reduction in cell population incubated for 48 hrs by MTT assay; assay type: toxicity, cell-based; settings: chlorocebus sabaeus
Staphylococcus aureus = experiment: Antibacterial activity against Staphylococcus aureus ATCC 25923 incubated for 18 hrs by resazurin dye based broth microdilution method; assay type: functional
[5] = system: Mycobacterium tuberculosis; experiment: Antimycobacterial activity against isoniazid, rifampicin, ethambutol and pyrazinamide sensitive Mycobacterium tuberculosis H37Rv ATCC 25618 assessed as inhibition of bacterial growth incubated for 7 days by resazurin dye based colorimetric method analysis; assay type: functional; settings: H37Rv ATCC 25618, 168 h, time 7 day
[6] = Cytotoxicity against human HepG2 cells assessed as reduction in cell population incubated for 48 hrs by MTT assay; assay type: toxicity, cell-based
[7] = system: Mycobacterium tuberculosis; experiment: Antimycobacterial activity against Mycobacterium tuberculosis H37Rv ATCC 25618 incubated for 7 days by resazurin dye based two-dimensional micro dilution checkerboard assay in presence of 1-((3,4,5-trimethoxybenzyl)oxy)heptadecan-2-amine; assay type: functional; settings: time 7 day
[8] = system: Mycobacterium tuberculosis; experiment: Antimycobacterial activity against Mycobacterium tuberculosis H37Rv ATCC 25618 incubated for 7 days by resazurin dye based two-dimensional micro dilution checkerboard assay in presence of 1-(benzyloxy)heptadecan-2-amine; assay type: functional; settings: time 7 day
[9] = system: Mycobacterium tuberculosis; experiment: Antimycobacterial activity against Mycobacterium tuberculosis H37Rv ATCC 25618 assessed as fractional inhibitory concentration incubated for 7 days in presence of 2-aminoheptadecan-1-ol by resazurin dye based two-dimensional micro dilution checkerboard assay; assay type: functional; settings: time 7 day

Compound	MIC (Klebsiella pneumoniae)	CC50 at 48 h [1]	MIC [2]	Ratio [3]	CC50 at 48 h [4]	MIC (Staphylococcus aureus)	MIC [5]	CC50 at 48 h [6]	FIC [7]	FIC [8]	FIC [9]
CCCCCCCCCCCCCCCC(CO)NCCCCCC (configuration not stated)	> 512 µM	23.8 µM	256 µM (≈ 91 µg/mL)	6	113 µM	128 µM (≈ 45.5 µg/mL)	64 µM (≈ 22.8 µg/mL)				
CCCCCCCCCCCCCCCC(CNCCCCCC)NC(=O)OC(C)(C)C (configuration not stated)	> 512 µM	20.8 µM	128 µM (≈ 58.2 µg/mL)	45	22.9 µM	256 µM (≈ 116 µg/mL)	8 µM (≈ 3.64 µg/mL)	86.8 µM			
CCCCCCCCCCCCCCCC(CO)N(CCCC)CCCC (configuration not stated)		22.4 µM	> 512 µM	45	47.2 µM		8 µM (≈ 3.07 µg/mL)	82.5 µM			
CCCCCCCCCCCC(CO)NCCCC (configuration not stated)		21.4 µM		11	26 µM		32 µM (≈ 8.69 µg/mL)				
CC(C)(O/N=C(\C(=O)N[C@@H]1C(=O)N2C(C(=O)[O-])=C(C[n+]3ccccc3)CS[C@H]12)c1csc(N)n1)C(=O)O [CEFTAZIDIME]	0.5 µM (≈ 0.273 µg/mL)										
CCCCCCCCCCCCCCCCCCCC(CN)NC(=O)OC(C)(C)C (configuration not stated)		36 µM		11	51.4 µM		32 µM (≈ 13.7 µg/mL)				
CCCCc1ccc(CCCCCCCCCC(CO)NC(=O)OC(C)(C)C)cc1 (configuration not stated)		15.8 µM		11	31 µM		32 µM (≈ 13.4 µg/mL)				
CCCCCCCCCCCCCCCC(N)CN (configuration not stated)	> 512 µM	217 µM	512 µM (≈ 138 µg/mL)	<5.6	192 µM	> 512 µM	> 64 µM				
CCCCCCCCCCCCCCCCCCCC(N)COCc1ccccc1 (configuration not stated)	> 512 µM	23 µM	256 µM (≈ 107 µg/mL)	11	126 µM	> 512 µM	32 µM (≈ 13.4 µg/mL)				
NNC(=O)c1ccncc1 [ISONIAZID]							0.91 µM and 0.13 µg/mL		0.5	0.5	0.5
CCCCCCCCCCCCCCCCCCCC(CO)N(CC)CC (configuration not stated)	> 512 µM	102 µM	> 512 µM	<5.6	117 µM	> 512 µM	> 64 µM				
CCCCCCCCCCCCCCCC(CN)NC(=O)OC(C)(C)C (configuration not stated)		5.18 µM		20	21.9 µM		17.6 µM (≈ 6.52 µg/mL)				
CCCCCCCCCCCCCCCC(COCc1ccccc1)NCCCCCC (configuration not stated)		54.6 µM		6	54 µM		64 µM (≈ 28.5 µg/mL)				
CCCCCCCCCCCCCCCC(CNCCCC)NC(=O)OC(C)(C)C (configuration not stated)	> 512 µM	21.2 µM	32 µM (≈ 13.7 µg/mL)	45	20.3 µM	16 µM (≈ 6.83 µg/mL)	8 µM (≈ 3.41 µg/mL)	136 µM			
CCCCCCCCCCCCCCCC(CO)NCCCCCCCCCC (configuration not stated)	> 512 µM	55.3 µM	128 µM (≈ 52.7 µg/mL)	6	104 µM	512 µM (≈ 211 µg/mL)	64 µM (≈ 26.4 µg/mL)				
CCCCCCCCCCCCCCCC(CNCC)NC(=O)OC(C)(C)C (configuration not stated)	512 µM (≈ 204 µg/mL)	19.8 µM	32 µM (≈ 12.8 µg/mL)	23	17.7 µM	≤ 4 µM	16 µM (≈ 6.38 µg/mL)	107 µM			
NCC[C@H](O)C(=O)N[C@@H]1C[C@H](N)[C@@H](O[C@H]2O[C@H](CN)[C@@H](O)[C@H](O)[C@H]2O)[C@H](O)[C@H]1O[C@H]1O[C@H](CO)[C@@H](O)[C@H](N)[C@H]1O [AMIKACIN]			1 µM (≈ 0.586 µg/mL)				0.1 µM and 0.08 µg/mL		0.5	0.25	0.063
CCCCCCCCCCCCCCCCCCCC(COCc1ccccc1)NCC (configuration not stated)	> 512 µM	52.3 µM	128 µM (≈ 57.1 µg/mL)	23	67.8 µM	> 512 µM	16 µM (≈ 7.13 µg/mL)	95.1 µM			
CCCCc1ccc(CCCCCCCC(CO)NC(=O)OC(C)(C)C)cc1 (configuration not stated)		12.9 µM		11	28.3 µM		32 µM (≈ 12.5 µg/mL)				
CCCCCCCCCCCCCCCC(CN=[N+]=[N-])NC(=O)OC(C)(C)C (configuration not stated)	> 512 µM	104 µM	> 512 µM	<5.6	63.8 µM	> 512 µM	> 64 µM				
CCCCCCCCCCCC(CO)N(CC)CC (configuration not stated)		17.6 µM		6	36.2 µM		64 µM (≈ 17.4 µg/mL)				
CCCCCCCCCCCC(CNCC)NC(=O)OC(C)(C)C (configuration not stated)		20.9 µM		6	32.3 µM		64 µM (≈ 21.9 µg/mL)				
